# Test results from patent publication US20130079345A1, “[…] ACTIVE DISUBSTITUTED TRIAZINE DERIVATIVES” (BAYER INTELLECTUAL PROPERTY GMBH, priority 2010, published 2013).
# Counter-ions that a name gives are not always drawn.
# Legend:
# MDAMB468 cells = assay: Cell viability assay, MDAMB468 cells; format: cell-based; conditions: Homo sapiens, MDA-MB-468, 72 h, Cell Titer Glo
# Description: (§1) HeLa- or MDAMB468-Cells or MATU ADR, H460, DU145, CACO-2 or B16F10 cells were maintained in RPMI 1640 or McCoy's 5A cell culture medium+glutamine (PAN Biotech GmbH, Aidenbach, Germany; order no. P04-22100; P04-05500) supplemented with 10% fetal calf serum “Gold” (PAA Laboratories GmbH, Pasching, Austria; order no. A15-151) and grown at 37° C., 5% CO2. For the cell viability assay, cells were seeded with a density of 400 (Hela cells, DSMZ Braunschweig order no. ACC57) or 800 (MDAMB468 cells, ATCC order no. HTB-132) per well in 25 μL in 384-well plates (Greiner Bio-One, Frickenhausen, Germany; order no. 781080). After overnight incubation at 37° C./5% CO2, 25 nL or 75 nL compound were added to each sample well by using BIOMEK FXP Laboratory Automation Workstation (Beckman Coulter, USA). Wells with cells and 0.1% or 0.3% DMSO in culture medium were used as positive controls, wells with cells and 10 μM staurosporine in culture medium were used as negative controls. The cells were incubated with the compounds for 72 h at 37° C./5% CO2. For measurement of cell viability […] Cell Titer Glo reagent (Promega, Madison, USA; order no. G7573), 1:2 diluted with cell culture medium, was added to each well. The 384well-plates were placed for 2 min on an orbital microplate shaker and incubated for further 10 min at room temperature to stabilize the luminescence signal. Luminescence was measured by Envision Plate Reader (Perkin Elmer, USA). EC50 values were calculated with the software Excel Fit (IDBS, Guildford, UK) from 3-fold dilution series comprising at least 8 concentrations in duplicates.
# MaTu/ADR cells = assay: Cell viability, MaTu/ADR cells; format: cell-based; conditions: Homo sapiens
# Description: HeLa- or MDAMB468-Cells or MATU ADR, H460, DU145, CACO-2 or B16F10 cells were maintained in RPMI 1640 or McCoy's 5A cell culture medium+glutamine (PAN Biotech GmbH, Aidenbach, Germany; order no. P04-22100; P04-05500) supplemented with 10% fetal calf serum “Gold” (PAA Laboratories GmbH, Pasching, Austria; order no. A15-151) and grown at 37° C., 5% CO2. For the cell viability assay, cells were seeded with a density of 400 (Hela cells, DSMZ Braunschweig order no. ACC57) or 800 (MDAMB468 cells, ATCC order no. HTB-132) per well in 25 μL in 384-well plates (Greiner Bio-One, Frickenhausen, Germany; order no. 781080). After overnight incubation at 37° C./5% CO2, 25 nL or 75 nL compound were added to each sample well by using BIOMEK FXP Laboratory Automation Workstation (Beckman Coulter, USA). Wells with cells and 0.1% or 0.3% DMSO in culture medium were used as positive controls, wells with cells and 10 μM staurosporine in culture medium were used as negative controls. The cells were incubated with the compounds for 72 h at 37° C./5% CO2. For measurement of cell viability […] Cell Titer Glo reagent (Promega, Madison, USA; order no. G7573), 1:2 diluted with cell culture medium, was added to each well. The 384well-plates were placed for 2 min on an orbital microplate shaker and incubated for further 10 min at room temperature to stabilize the luminescence signal. Luminescence was measured by Envision Plate Reader (Perkin Elmer, USA). […]
# Cultivated tumour cells (NCl-H460, human non-small cell lung carcinoma cells, ATCC HTB-177; DU 145, hormone-independent human prostate carcinoma cells, ATCC HTB-81; HeLa-MaTu, human cervical carcinoma cells, EPO-GmbH, Berlin; HeLa-MaTu-ADR, multidrug-resistant human cervical carcinoma cells, EPO-GmbH, Berlin; HeLa human cervical tumour cells, ATCC CCL-2; Caco-2 human colorectal carcinoma, ATCC HTB-37; B16F10 mouse melanoma cells, ATCC CRL-6475) were plated at a density of 5,000 cells/well (DU145, HeLa-MaTu-ADR), 3,000 cells/well (NCl-H460, HeLa-MaTu, HeLa), 1,500 cells/well (Caco-2), or 1,000 cells/well (B16F10) in a 96-well multititer plate in 200 μL of their respective growth medium supplemented with 10% fetal calf serum. […] Cell proliferation was determined by staining the cells with crystal violet: The cells were fixed by adding 20 μl/measuring point of an 11% glutaric aldehyde solution at room temperature for 15 minutes. […] The extinction was determined by photometry at a wavelength of 595 nm. The change of cell number, in percent, was calculated by normalization of the measured values to the extinction values of the zero-point plate (equivalent to 0%) and the extinction of the untreated (0 μm) cells (equivalent to 100%). The IC50 values were determined by means of a 4 parameter fit using the company's own software.
# H460 cells = assay: Cell viability, H460 cells; format: cell-based, human
# Description: as §1
# (§2) Cultivated tumour cells (NCl-H460, human non-small cell lung carcinoma cells, ATCC HTB-177; DU 145, hormone-independent human prostate carcinoma cells, ATCC HTB-81; HeLa-MaTu, human cervical carcinoma cells, EPO-GmbH, Berlin; HeLa-MaTu-ADR, multidrug-resistant human cervical carcinoma cells, EPO-GmbH, Berlin; HeLa human cervical tumour cells, ATCC CCL-2; Caco-2 human colorectal carcinoma, ATCC HTB-37; B16F10 mouse melanoma cells, ATCC CRL-6475) were plated at a density of 5,000 cells/well (DU145, HeLa-MaTu-ADR), 3,000 cells/well (NCl-H460, HeLa-MaTu, HeLa), 1,500 cells/well (Caco-2), or 1,000 cells/well (B16F10) in a 96-well multititer plate in 200 μL of their respective growth medium supplemented with 10% fetal calf serum. After 24 hours, the cells of one plate (zero-point plate) were stained with crystal violet (see below), while the medium of the other plates was replaced by fresh culture medium (200 μl), to which the test substances were added in various concentrations (0 μM as well as in the range of 0.001 to 10 μM; the final concentration of the solvent dimethyl sulfoxide was 0.5%). The cells were incubated in the presence of test substances for 4 days. Cell proliferation was determined by staining the cells with crystal violet: The cells were fixed by adding 20 μl/measuring point of an 11% glutaric aldehyde solution at room temperature for 15 minutes. After three washing cycles of the fixed cells with water, the plates were dried at room temperature. […] The extinction was determined by photometry at a wavelength of 595 nm. The change of cell number, in percent, was calculated by normalization of the measured values to the extinction values of the zero-point plate (equivalent to 0%) and the extinction of the untreated (0 μm) cells (equivalent to 100%). The IC50 values were determined by means of a 4 parameter fit using the company's own software.
# B16F10 cells = assay: Cell viability, B16F10 cells; format: cell-based, mouse
# Description: as §1, §2
# CDK8/Cyclin C = biological target: T1, CDK8/Cyclin C (Homo sapiens, UniProt P49336); assay: LanthaScreen Eu Kinase Binding Assay, CDK8; conditions: tracer 236, read-out: Affinity (Kd) CDK8
# T1 construct: purchased Invitrogen
# Description: This protocol describes how the LanthaScreen Eu Kinase Binding Assay was performed to determine dissociation constants (Kd) of compounds of general formula (I) and CDK/Cyclin complexes. The principle behind this assay is based upon the binding and displacement of an Alexa Fluor 647-labeled tracer, which binds to the active site of kinases. Binding of the tracer to the kinase is detected using a Eu-labeled antibody. Simultaneous binding of both the tracer and antibody to the kinase gives rise to a FRET-signal. Binding of an inhibitor to the kinase competes for binding with the tracer, resulting in a loss of FRET.
# The compounds of general formula (I) summarized in Table 1 were diluted from a 10 mM DMSO stock solution 1:10 in a total volume of 15 μL DMSO. This compound predilution was then serial diluted 1:3 over 8 steps in DMSO and briefly spun down. Each compound solution was now diluted 1:33.33 in kinase buffer (HEPES: 20 mM, pH: 8.0; MgCl2: 10 mM; DTT: 1 mM; Brij-35: 0.01%), mixed thoroughly and spun down. For every sample, 5 μL of the diluted compound were mixed with 5 μL tracer working solution (e.g. 60 nM tracer 236 in kinase buffer for CDK2/Cyclin A) and 5 μL CDK/Cyclin/Anti-GST-AB-working solution (e.g. 15 nM CDK2/Cyclin A, 1:250 dilution of Anti-GST-AB in kinase buffer) in a well of a small volume 384 well plate (Corning Incorporated, Corning, N.Y., USA; order no. 3673). […] For positive controls, in each well 5 μL of DMSO working solution (3% DMSO diluted in kinase buffer) was mixed with 5 μL CDK/Cyclin/Anti-GST-AB-working solution: (e.g. 15 nM CDK2/Cyclin A, 1:250 dilution of Anti-GST-AB in kinase buffer) and 5 μL Tracer working solution (e.g. 60 nM Tracer 236 in kinase buffer for CDK2/Cyclin A). Positive and negative controls were calculated from at least 8 different sample wells. The 384 well plates were mixed in a Teleshaker plate mixer (Beckman Coulter, Brea, Calif., USA) at 2000 rpm for 40 sec, and incubated for 1 h at room temperature before reading. The FRET signal was measured at 340 nm excitation, 665 nm and 615 nm emission (for the kinase tracer and LanthaScreen Eu-AB, respectively) with an Envision spectrophotometer (Perkin Elmer, Waltham, Mass., USA) with 50 μs delay and 300 μs integration time. Kd values were determined from the sigmoidal dose response curves with the software Quattro Workflow (Quattro GmbH, Munich, Germany).
# T1 sequence (P49336 whole entry): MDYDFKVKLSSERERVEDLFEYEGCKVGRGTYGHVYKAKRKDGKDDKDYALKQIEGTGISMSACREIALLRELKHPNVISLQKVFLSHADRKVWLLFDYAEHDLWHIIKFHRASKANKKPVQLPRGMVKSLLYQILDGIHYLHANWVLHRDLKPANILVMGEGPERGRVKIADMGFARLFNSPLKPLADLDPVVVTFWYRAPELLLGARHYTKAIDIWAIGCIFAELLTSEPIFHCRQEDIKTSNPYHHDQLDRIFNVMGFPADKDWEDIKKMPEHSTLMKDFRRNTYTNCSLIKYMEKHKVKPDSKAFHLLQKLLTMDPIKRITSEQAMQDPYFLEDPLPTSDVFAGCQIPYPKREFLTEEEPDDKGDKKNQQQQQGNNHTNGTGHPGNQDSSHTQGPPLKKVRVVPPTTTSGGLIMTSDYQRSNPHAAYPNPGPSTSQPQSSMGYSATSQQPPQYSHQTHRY
# T1 sequence (P24863 whole entry partner): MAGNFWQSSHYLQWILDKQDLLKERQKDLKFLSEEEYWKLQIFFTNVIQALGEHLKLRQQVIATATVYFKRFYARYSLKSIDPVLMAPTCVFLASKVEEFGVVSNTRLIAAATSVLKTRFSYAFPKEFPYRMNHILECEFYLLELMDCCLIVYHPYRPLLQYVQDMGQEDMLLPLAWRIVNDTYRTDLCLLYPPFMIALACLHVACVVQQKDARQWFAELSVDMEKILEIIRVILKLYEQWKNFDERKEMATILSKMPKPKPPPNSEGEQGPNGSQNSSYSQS
IC50 (MDAMB468 cells) [nM],Kd (CDK8/Cyclin C) [µM],Compound,other results
4500,–,"CCCS(=O)(=O)Nc1cccc(Nc2ncnc(-c3ccccc3OC)n2)c1 [Compound L1, N-[3-((4-(2-Methoxyphenyl)-1,3,5-triazin-2-yl)amino)phenyl]-propanesulfonamide]",–
–,5.7,"NS(=O)(=O)Cc1cccc(Nc2ncnc(-c3ccccc3Oc3ccccc3)n2)c1 [Compound B14, 1-(3-{[4-(2-phenoxyphenyl)-1,3,5-triazin-2-yl]amino}phenyl)methanesulfonamide]",–
–,6.78,"COc1cc(Cl)ccc1-c1ncnc(Nc2cccc(CS(N)(=O)=O)c2)n1 [Compound B6, 3-[(4-(4-Chloro-2-methoxyphenyl)-1,3,5-triazin-2-yl)amino]benzenemethanesulfonamide]",–
–,> 10,"CCOc1ccccc1-c1ncnc(Nc2cccc(CS(N)(=O)=O)c2)n1 [Compound B12, 3-[(4-(2-Ethoxyphenyl)-1,3,5-triazin-2-yl)amino]benzenemethanesulfonamide]",–
13300,–,"COc1ccccc1-c1ncnc(Nc2ccccc2)n1 [Compound P1, 4-(2-Methoxyphenyl)-N-phenyl-1,3,5-triazine-2-amine]",–
830,–,"COc1ccccc1-c1ncnc(Nc2cccc([N+](=O)[O-])c2)n1 [Compound H1, 4-(2-Methoxyphenyl)-N-(3-nitrophenyl)-1,3,5-triazine-2-amine]",–
–,> 10,"NS(=O)(=O)Cc1cccc(Nc2ncnc(-c3ccccc3OCc3ccncc3)n2)c1 [Compound B16, 3-[(4-(2-((4-Pyridinyl)methoxy)phenyl)-1,3,5-triazin-2-yl)amino]benzenemethanesulfonamide]",–
4610,–,"COc1ccccc1-c1ncnc(Nc2cccc(CCS(N)(=O)=O)c2)n1 [Compound D1, 2-[3-((4-(2-Methoxyphenyl)-1,3,5-triazin-2-yl)amino)phenyl]ethanesulfonamide]",–
–,> 10,"COc1cccc(F)c1-c1ncnc(Nc2cccc(CS(N)(=O)=O)c2)n1 [Compound B4, 3-[(4-(6-Fluoro-2-methoxyphenyl)-1,3,5-triazin-2-yl)amino]benzenemethanesulfonamide]",–
420,–,"COc1cc(F)ccc1-c1ncnc(Nc2cccc(CS(N)(=O)=O)c2)n1 [Compound B2, 3-[(4-(4-Fluoro-2-methoxyphenyl)-1,3,5-triazin-2-yl)amino]benzenemethanesulfonamide]","IC50 (MaTu/ADR cells): 1000 nM; IC50 (H460 cells; Homo sapiens, NCI-H460): 1300 nM; IC50 (B16F10 cells; Mus musculus, B16-F10): 1600 nM"

# The remaining lines, values behind:
Compound,IC50 (MDAMB468 cells) [nM],Kd (CDK8/Cyclin C) [µM],other results
"COc1ccccc1-c1ncnc(Nc2cccc(CS(N)(=O)=O)c2)n1 [B1′, 3-[(4-(2-Methoxyphenyl)-1,3,5-triazin-2-yl)amino]benzenemethanesulfonamide trifluoroacetic acid salt]",2990,–,"IC50 (MaTu/ADR cells): 3200 nM; IC50 (H460 cells; Homo sapiens, NCI-H460): 3500 nM; IC50 (B16F10 cells; Mus musculus, B16-F10): 4400 nM"
"COc1cc(F)ccc1-c1ncnc(Nc2cccc(CS(N)(=O)=O)c2)n1 [B2′, 1-(3-{[4-(4-fluoro-2-methoxyphenyl)-1,3,5-triazin-2-yl]amino}phenyl)methanesulfonamide hydrochloride]",–,–,IC50 (H460 cells; hydrochloride): 1500 nM; IC50 (B16F10 cells; hydrochloride): 1100 nM
"COc1ccccc1-c1ncnc(Nc2cccc(S(N)(=O)=O)c2)n1 [C1′, 3-[(4-(2-Methoxyphenyl)-1,3,5-triazin-2-yl)amino]benzenesulfonamide trifluoroacetic acid salt]",800,–,"IC50 (MaTu/ADR cells): 760 nM; IC50 (H460 cells; Homo sapiens, NCI-H460): 1100 nM; IC50 (B16F10 cells; Mus musculus, B16-F10): 1000 nM"
"NS(=O)(=O)Cc1cccc(Nc2ncnc(-c3ccccc3OCc3ccccc3)n2)c1 [B13′, 3-[(4-(2-Benzyloxyphenyl)-1,3,5-triazin-2-yl)amino]benzenemethanesulfonamide trifluoroacetic acid salt]",160,4.86,"IC50 (MaTu/ADR cells): 290 nM; IC50 (H460 cells; Homo sapiens, NCI-H460): 320 nM; IC50 (B16F10 cells; Mus musculus, B16-F10): 320 nM"
"COc1cc(F)ccc1-c1ncnc(Nc2cccc(CS(N)(=O)=O)c2)n1 [B2″, 1-(3-{[4-(4-fluoro-2-methoxyphenyl)-1,3,5-triazin-2-yl]amino}phenyl)methanesulfonamide trifluoroacetic acid salt]",–,> 10,–
